This passage reports mass density results from the NIST ThermoML archive (doi:10.1016/j.jct.2015.09.010).

The structures appear in SMILES notation. Numbers after ± are expanded uncertainties.

What is called mass density is mass per unit of volume.

The conditions of this data set: 298.15 K; 101.33 kPa; Liquid; Pycnometric method.
For `CC#N` [acetonitrile], the mass density was 777.1 ± 4.8 kg/m3. To `CCCCO` [butan-1-ol] belongs 806.1 ± 4.8 kg/m3; to `CCO` [ethanol], 785.3 ± 4.8 kg/m3; to `CO` [methanol], 786.6 ± 4.8 kg/m3. Regarding `CCCO` [propan-1-ol], the mass density came out at 799.7 ± 4.8 kg/m3. The figure for `CC(C)O` [propan-2-ol] is 781.1 ± 4.8 kg/m3.
